The text below walks through data of US20130296390A1, “METHOD AND COMPOSITIONS FOR ENHANCING THE SAFETY OF ORALLY ADMINISTERED MAGNESIUM ALPHA-LIPOATE” (BIOLINK LIFE SCIENCES, INC., priority 2012, published 2013).

Series [1] deals with T1, sodium-dependent vitamin transporters (SMVT) (Homo sapiens, UniProt Q9Y289).
T1 construct: in keratinocytes, the SMVT transport system; endogenous in cells; host or cells: human keratinocytes
T1 sequence (Q9Y289 1-635): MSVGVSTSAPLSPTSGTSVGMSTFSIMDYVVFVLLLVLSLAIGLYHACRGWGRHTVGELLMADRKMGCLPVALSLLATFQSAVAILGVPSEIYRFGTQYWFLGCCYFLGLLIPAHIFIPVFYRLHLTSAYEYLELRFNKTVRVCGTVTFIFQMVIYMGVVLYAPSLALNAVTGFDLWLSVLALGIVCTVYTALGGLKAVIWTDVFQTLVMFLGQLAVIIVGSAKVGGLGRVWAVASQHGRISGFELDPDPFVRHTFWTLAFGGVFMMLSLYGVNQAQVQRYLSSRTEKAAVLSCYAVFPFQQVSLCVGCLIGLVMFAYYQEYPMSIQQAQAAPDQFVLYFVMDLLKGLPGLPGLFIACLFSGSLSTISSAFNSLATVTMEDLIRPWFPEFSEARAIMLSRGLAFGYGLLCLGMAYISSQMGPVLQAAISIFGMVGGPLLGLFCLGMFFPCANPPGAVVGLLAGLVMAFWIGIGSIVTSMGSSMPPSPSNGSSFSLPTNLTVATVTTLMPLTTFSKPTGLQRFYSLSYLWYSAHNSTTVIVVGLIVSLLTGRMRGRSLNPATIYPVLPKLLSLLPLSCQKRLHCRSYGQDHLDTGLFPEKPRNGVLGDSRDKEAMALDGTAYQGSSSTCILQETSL
The settings on record: keratinocytes, cited from earlier work; for Ki: read-out: Ki, inhibition of biotin uptake.

Series [2] addresses second biotin transport component. The settings on record: keratinocytes, cited from earlier work.
A short description of series [3]: Physicochemical description.
In series [4] the test system is mouse model of chronic kidney disease (CKD). Kind of series: Example 1: phosphate binders in diet of LDLR−/− mouse model of CKD. The following applies: chronic daily dose of 0.5% or 1.5% (by weight) in the diet, oral. In kind it is in vivo.
Source text: This study critically examined the in vivo efficacy of phosphate binding by a combination of phosphate binders, magnesium R-(+)-α-lipoate and calcium succinate monohydrate, in a mouse model of chronic kidney disease (CKD). The model is partial renal ablation in the LDL receptor-deficient (LDLR−/−) mouse that is fed high fat/cholesterol diets. […] In these animals, CKD causes intensification of vascular calcification (VC).
Materials: Calcium succinate monohydrate (CaSucc) and magnesium R-(+)-α-lipoate (MgRALA) having high purity and freedom from contaminating trace metals were provided by BioLink Life Sciences, Inc. Other chemicals were purchased from Sigma Aldrich Company (St. Louis, Mo.). […]
Two sets of animals in the group receiving magnesium alpha-lipoate were treated according to the protocol. […] Myocardin, Smad6, sm22α, calponin, αSMA, BMP-2, RUNX2/Cbfa1, osteopontin and osteocalcin message levels were measured by real time RT-PCR. Osteocalcin, type 1 collagen and αSMA were determined by immunohistochemistry. MGP levels and specifically γ-carboxylated MGP were determined with a specific antibody. […]
Blood Tests: Serum was analyzed on the day of blood draw for blood urea nitrogen [BUN], cholesterol, calcium, glucose and phosphate by standard autoanalyzer laboratory methods.
Series [5] is described as follows: Short and long-term toxicity studies of ALA (NOAEL). In kind it is in vivo. As to the method:
Alpha-Lipoic acid is the sole remaining component in the formulation tested in Example 1. The safety and absence of toxicity of ALA has been established in both short and long-term toxicity studies, including in vitro mutagenicity/genotoxicity studies. The no-observed adverse effect level (NOAEL) of ALA is considered to be 60 mg per kg body weight per day. […] Nonetheless, the inventor examined to a number of potential mechanisms of toxicity related to alpha-lipoate.

For series [6] the following is noted: in vivo; cited from earlier work.
The conditions of series [7]: oral; cited from earlier work.
Series [8] addresses T2, pyruvate carboxylase (EC 6.4.1.1) (Rattus norvegicus, UniProt P52873).
T2 construct: Lipoic acid reduces the activities of biotin-dependent carboxylases in rat liver; from tissue; host or cells: rat liver
T2 sequence (P52873 21-1178): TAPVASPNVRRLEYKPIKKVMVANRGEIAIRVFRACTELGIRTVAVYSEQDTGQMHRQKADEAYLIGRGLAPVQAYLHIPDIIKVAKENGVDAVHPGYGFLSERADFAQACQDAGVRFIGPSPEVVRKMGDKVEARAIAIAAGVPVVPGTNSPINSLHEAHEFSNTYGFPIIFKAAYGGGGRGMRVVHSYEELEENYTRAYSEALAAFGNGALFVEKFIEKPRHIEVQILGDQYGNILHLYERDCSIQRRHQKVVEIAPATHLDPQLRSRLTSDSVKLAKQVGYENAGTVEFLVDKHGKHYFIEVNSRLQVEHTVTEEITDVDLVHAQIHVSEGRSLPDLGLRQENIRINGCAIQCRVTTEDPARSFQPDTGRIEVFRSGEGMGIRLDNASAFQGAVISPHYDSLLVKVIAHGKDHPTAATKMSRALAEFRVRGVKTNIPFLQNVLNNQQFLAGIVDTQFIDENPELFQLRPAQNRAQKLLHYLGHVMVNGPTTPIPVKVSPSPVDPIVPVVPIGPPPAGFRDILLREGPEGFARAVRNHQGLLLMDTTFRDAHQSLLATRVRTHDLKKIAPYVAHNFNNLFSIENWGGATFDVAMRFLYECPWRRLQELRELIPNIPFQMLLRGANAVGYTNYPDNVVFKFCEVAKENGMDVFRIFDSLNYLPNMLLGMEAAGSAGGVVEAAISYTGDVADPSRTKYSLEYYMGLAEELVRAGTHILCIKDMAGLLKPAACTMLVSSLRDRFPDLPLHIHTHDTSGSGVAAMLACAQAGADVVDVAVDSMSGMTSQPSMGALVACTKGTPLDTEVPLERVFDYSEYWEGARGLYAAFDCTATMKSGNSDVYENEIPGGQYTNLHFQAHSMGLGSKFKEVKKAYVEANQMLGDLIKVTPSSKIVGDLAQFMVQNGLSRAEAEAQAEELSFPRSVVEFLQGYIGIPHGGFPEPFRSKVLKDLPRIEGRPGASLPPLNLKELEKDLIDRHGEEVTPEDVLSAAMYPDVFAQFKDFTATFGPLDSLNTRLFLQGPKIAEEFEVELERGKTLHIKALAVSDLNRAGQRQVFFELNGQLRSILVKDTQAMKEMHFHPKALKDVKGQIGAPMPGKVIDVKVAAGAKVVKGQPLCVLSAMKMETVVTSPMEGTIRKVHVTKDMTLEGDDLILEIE
The following applies: intraperitoneal ALA 8.8 mg/kg·day or 31.8 mg/kg·d, rats, compared with vehicle controls (P<0.05); cited from earlier work.

The target of series [9] is T3, β-methylcrotonyl-CoA carboxylase (EC 6.4.1.4) (Rattus norvegicus, UniProt Q5I0C3+Q5XIT9).
T3 construct: Lipoic acid reduces the activities of biotin-dependent carboxylases in rat liver; from tissue; host or cells: rat liver
T3 sequence (Q5I0C3 39-715): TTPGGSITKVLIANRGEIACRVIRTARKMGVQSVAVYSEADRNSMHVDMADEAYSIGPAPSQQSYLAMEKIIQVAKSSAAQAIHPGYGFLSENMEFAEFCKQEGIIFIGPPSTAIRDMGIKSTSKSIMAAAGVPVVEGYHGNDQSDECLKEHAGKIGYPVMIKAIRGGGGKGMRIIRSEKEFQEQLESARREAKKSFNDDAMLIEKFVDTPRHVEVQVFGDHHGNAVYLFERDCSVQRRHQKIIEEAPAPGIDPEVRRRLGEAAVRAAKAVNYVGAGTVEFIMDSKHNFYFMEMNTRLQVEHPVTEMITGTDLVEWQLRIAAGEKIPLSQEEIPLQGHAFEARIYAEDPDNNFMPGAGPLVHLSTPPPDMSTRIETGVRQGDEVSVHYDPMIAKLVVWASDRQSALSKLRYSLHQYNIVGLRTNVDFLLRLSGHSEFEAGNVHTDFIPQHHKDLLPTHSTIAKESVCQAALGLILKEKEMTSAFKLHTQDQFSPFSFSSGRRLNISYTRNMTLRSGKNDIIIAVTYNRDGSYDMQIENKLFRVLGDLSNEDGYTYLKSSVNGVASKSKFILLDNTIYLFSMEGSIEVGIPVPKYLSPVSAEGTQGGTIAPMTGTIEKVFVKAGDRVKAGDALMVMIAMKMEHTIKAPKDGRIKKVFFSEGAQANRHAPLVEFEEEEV
T3 sequence (Q5XIT9 23-563): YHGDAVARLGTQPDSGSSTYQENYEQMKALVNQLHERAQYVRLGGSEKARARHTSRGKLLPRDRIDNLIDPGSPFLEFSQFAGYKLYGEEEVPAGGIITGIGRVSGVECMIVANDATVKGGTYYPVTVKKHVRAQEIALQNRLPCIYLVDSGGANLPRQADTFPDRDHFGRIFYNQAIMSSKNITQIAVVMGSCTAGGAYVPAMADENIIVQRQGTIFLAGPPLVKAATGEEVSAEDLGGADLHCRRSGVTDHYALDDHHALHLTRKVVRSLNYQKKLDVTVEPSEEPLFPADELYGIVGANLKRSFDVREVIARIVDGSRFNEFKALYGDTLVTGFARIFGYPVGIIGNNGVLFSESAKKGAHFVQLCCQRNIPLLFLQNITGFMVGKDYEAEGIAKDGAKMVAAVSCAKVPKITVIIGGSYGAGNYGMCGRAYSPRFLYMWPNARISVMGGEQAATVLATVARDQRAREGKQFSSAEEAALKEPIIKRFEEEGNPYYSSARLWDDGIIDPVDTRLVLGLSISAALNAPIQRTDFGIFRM
The settings on record: intraperitoneal ALA 8.8 mg/kg·day or 31.8 mg/kg·d, rats, compared with vehicle controls (P<0.05); cited from earlier work.

In series [10] the test system is acetyl-CoA carboxylase (EC 6.4.1.2). The settings on record: intraperitoneal ALA 8.8 mg/kg·day or 31.8 mg/kg·d, rats; wide intragroup variability; cited from earlier work.
For series [11] the following is noted: intravenous, acute 100 mg/kg dose, rat; cited from earlier work.
The conditions of series [12]: cited from earlier work.
The conditions of series [13]: oral, chronic daily doses about 30 mg/kg to over 2,000 mg/kg body weight; cited from earlier work.

Entries after “also recorded” stand apart in the source; their conditions may differ. Where only a bound is given, the exact number is not on record here.

With `O=C(O)CCCC[C@@H](S)CCS` (racemic) [dihydrolipoic acid], the Ki in series [1] was 11.4 µM.

Regarding `O=C(O)CCCC[C@@H]1SC[C@@H]2NC(=O)N[C@@H]21` [biotin, D-biotin], in series [1] (SMVT transport system), the “Michaelis-Menten constant for biotin” value was 22.7 ± 1.0 µM and the maximal velocity is 163.6±3.5 pmol per five minutes per milligram of protein. For the same compound, in [2] (read-out: Ki, second biotin transport component, saturable at very low biotin concentrations), the Ki was 0.0026 ± 0.0001 µM.

Consider `C[C@@H]1NC(=O)N[C@@H]1CCCCCC(=O)O` [desthiobiotin], for which the Ki in [1] is 15.2 µM.

Turning to `CC(C)(CO)[C@@H](O)C(=O)NCCC(=O)O` [panthothenic acid], in [1], the Ki is 1.2 µM. Also, the “inhibition of second biotin transport component” value in series [2] is “not inhibited”.

Regarding `O=C(O)CCCCC1CCSS1` (stereo not drawn) [Magnesium a-lipoate, magnesium alpha-lipoate], the “stability and hygroscopicity of the powder” value in series [3] is on record as “stable, non-hygroscopic”.

On to `O=C(O)CCCC[C@@H]1CCSS1` [magnesium R-(+)-alpha-lipoate, Magnesium R-(+)-alpha-lipoate], for which the “overt adverse effects (FIG. 1)” value in series [4] is “hair loss and skin disorders”. For the same compound, the “stability and hygroscopicity of the powder” value in [3] is given as “stable, non-hygroscopic”.

Turning to `O=C(O)CCCCC1CCSS1` (stereo not drawn) [ALA, alpha-lipoic acid], the “NOAEL equivalent for an adult man” value in series [5] (adult man) is listed as 4.2 grams of ALA per day. The “NOAEL equivalent for an adult woman” value in [5] (adult woman) is 3 grams of ALA per day. Moreover, the Ki in [1] was 4.6 µM. In addition, in [2], the “inhibition of second biotin transport component” value is recorded as “not inhibited”. Further, the “no-observed adverse effect level (NOAEL)” value in series [6] is reported as 60 mg per kg body weight per day. In addition, in series [7], the “fraction of orally administered ALA absorbed into cells and the systemic circulation” value is reported as “greater than 90%”; the “time in which most of the orally administered ALA is absorbed” value is reported as “two”. Further, in [8], the “reduction of pyruvate carboxylase activity” value is reported as 28-36%. Further, the “reduction of β-methylcrotonyl carboxylase activity” value in series [9] is listed as 28-36%. Further, in series [10], the “decrease of acetyl carboxylase activity” value is recorded as no more than 43%. In [11], the S-adenosylhomocysteine entry is reported as “elevated” and the S-adenosylmethionine entry is “depleted”. Besides, the “toxicities in human studies” value in series [12] (normal subjects and those with chronic kidney disease) was “no significant toxicities have been observed”. The “overt adverse effects in humans” value in series [12] (oral, total doses 100 mg to 1800 mg daily for months or years) was “without overt adverse effects; also recorded: no overt adverse effects”. Besides, the “overt adverse effects in animals” value in [13] is on record as “without overt adverse effects”.
